Laboratory results taken from ChEMBL document CHEMBL1201862, “PubChem BioAssay data set” (2004).
Activity calls are given as the source filed them.

What was measured:
Prothrombin = Prothrombin (Homo sapiens, UniProt P00734); experiment: Thrombin 1536 HTS Dose Response Confirmation. [Related pubchem assays: 1046 (Thrombin 1536 HTS; hits were confirmed in this assay)]; assay type: functional
[1] = biological target: T1, Heat shock factor protein 1 (Mus musculus, UniProt P38532); experiment: decrease of HSF1-responsive luciferase luminescence – cell-based, NIH3T3, dose retest, confirmation (AID 2382); assay type: functional;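 note: NIH3T3 fibroblasts with HSF1-driven luciferase reporter stressed by proteasome inhibitor MG132; luminescence from HSF1-driven luciferase expression after 8 hours of MG132 stress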
T1 sequence (P38532 whole entry): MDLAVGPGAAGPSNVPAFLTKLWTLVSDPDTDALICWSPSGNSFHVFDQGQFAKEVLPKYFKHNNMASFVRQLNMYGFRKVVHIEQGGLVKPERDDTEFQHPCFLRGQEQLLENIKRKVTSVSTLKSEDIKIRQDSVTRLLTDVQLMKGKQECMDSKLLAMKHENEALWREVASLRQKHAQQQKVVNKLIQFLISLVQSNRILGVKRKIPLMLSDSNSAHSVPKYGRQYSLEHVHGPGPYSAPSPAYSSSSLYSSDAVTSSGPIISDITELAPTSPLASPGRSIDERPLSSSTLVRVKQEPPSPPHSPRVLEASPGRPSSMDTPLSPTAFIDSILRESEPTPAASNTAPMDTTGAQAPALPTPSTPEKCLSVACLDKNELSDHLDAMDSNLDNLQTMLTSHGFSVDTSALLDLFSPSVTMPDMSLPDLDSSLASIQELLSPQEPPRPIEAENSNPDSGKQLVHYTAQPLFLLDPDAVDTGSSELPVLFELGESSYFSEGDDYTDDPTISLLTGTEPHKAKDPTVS

H4 = experiment: Luminescence Cell-Based Dose Response HTS to Identify Activators of 5'UTR Stem-Loop Driven Prion Protein mRNA Translation in H4 Neuroglioblastoma Cells. [Related pubchem assays: 1829 (Project Summary), 1814 (Primary HTS)]; assay type: functional; conditions: Homo sapiens
[2] = Luminescence Cell-Based Dose Confirmation HTS to Identify Activators of 5'UTR Stem-Loop Driven Alpha-Synuclein mRNA Translation in H4 Neuroglioblastoma Cells. [Related pubchem assays: 1829 (Project Summary), 1814 (Primary HTS)]; assay type: functional
[3] = Luminescence Cell-Based Dose Response HTS to Identify Activators of Luciferase Translation or Activity in H4 […] Cells. [Related pubchem assays: 1829 (Project Summary), 1814 (Primary HTS)]; assay type: functional
Cytochrome P450 2C9 = Cytochrome P450 2C9 (Homo sapiens, UniProt P11712)
[4] = biological target: Glyceraldehyde-3-phosphate dehydrogenase (Homo sapiens, UniProt P04406)
[5] = biological target: DNA dC->dU-editing enzyme APOBEC-3A (Homo sapiens, UniProt P31941); experiment: Dose Response confirmation of small molecule APOBEC3A DNA Deaminase Inhibitors via a fluorescence-based single-stranded DNA deaminase assay. [Related pubchem assays (depositor defined):AID493011, AID493024]; assay type: functional
[6] = biological target: T2, DNA dC->dU-editing enzyme APOBEC-3G (Homo sapiens, UniProt Q9HC16); assay type: functional
[7] = biological target: T2, DNA dC->dU-editing enzyme APOBEC-3G; experiment: Dose Response confirmation of small molecule APOBEC3G DNA Deaminase Inhibitors via a fluorescence-based single-stranded DNA deaminase assay. [Related pubchem assays (depositor defined):AID493012, AID493028]; assay type: functional
[8] = A cytotoxicity screen of small molecule inhibitors of the PhoP region in Salmonella typhi identified in the primary screen. [Related pubchem assays: 1850, 1864, 1985 ]; assay type: functional
[9] = biological target: Induced myeloid leukemia cell differentiation protein Mcl-1 (Homo sapiens, UniProt Q07820); assay type: functional
[10] = biological target: T3, Carboxy-terminal domain RNA polymerase II polypeptide A small phosphatase 1 (Homo sapiens, UniProt Q9GZU7); experiment: CTDSP1 inhibitors, concentration-response, biochemical, absorbance readout, ultra-high-throughput screen actives (AID 540297); assay type: functional
T3 sequence (Q9GZU7 whole entry): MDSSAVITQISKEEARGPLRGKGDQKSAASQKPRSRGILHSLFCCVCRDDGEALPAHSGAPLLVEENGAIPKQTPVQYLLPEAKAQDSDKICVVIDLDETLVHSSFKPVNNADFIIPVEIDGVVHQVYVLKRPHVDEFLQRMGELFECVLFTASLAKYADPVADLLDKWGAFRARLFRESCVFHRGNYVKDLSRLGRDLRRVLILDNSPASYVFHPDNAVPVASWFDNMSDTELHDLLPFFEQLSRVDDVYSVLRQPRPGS

Caspase-6 = biological target: T4, Caspase-6 (Homo sapiens, UniProt P55212); experiment: inhibition of CASP6 peptide cleavage – biochemical, VEID-R110 fluorescence, cherry-pick, dose response (AID 720632)
T4 sequence (P55212 whole entry): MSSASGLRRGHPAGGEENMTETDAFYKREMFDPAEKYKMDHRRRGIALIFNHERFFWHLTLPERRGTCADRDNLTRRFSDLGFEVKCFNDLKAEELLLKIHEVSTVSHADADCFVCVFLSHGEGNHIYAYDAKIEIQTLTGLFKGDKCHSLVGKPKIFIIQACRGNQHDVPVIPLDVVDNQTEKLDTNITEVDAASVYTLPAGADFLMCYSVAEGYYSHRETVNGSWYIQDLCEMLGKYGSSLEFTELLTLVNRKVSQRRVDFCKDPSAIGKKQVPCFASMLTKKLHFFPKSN

[11] = Luminescence Cell-Based Dose Confirmation HTS to Identify Inhibitors of Platelet Dense Granule Release. [Related pubchem assays: 1663 (Primary HTS), 1678 (Summary of Project)]; assay type: functional
[12] = biological target: Luciferin 4-monooxygenase (Photinus pyralis, UniProt P08659); experiment: inhibition of purified Photinus pyralis luciferase – biochemical, luminescence, dose response (AID 1891)
HEK293 = experiment: EBV LMP1 TES2 canonical NF-kB signalling blockers – cell-based, HEK293, luciferase, cherry-pick, dose response (AID 588343); assay type: functional; conditions: Homo sapiens

T2 sequence (Q9HC16 whole entry): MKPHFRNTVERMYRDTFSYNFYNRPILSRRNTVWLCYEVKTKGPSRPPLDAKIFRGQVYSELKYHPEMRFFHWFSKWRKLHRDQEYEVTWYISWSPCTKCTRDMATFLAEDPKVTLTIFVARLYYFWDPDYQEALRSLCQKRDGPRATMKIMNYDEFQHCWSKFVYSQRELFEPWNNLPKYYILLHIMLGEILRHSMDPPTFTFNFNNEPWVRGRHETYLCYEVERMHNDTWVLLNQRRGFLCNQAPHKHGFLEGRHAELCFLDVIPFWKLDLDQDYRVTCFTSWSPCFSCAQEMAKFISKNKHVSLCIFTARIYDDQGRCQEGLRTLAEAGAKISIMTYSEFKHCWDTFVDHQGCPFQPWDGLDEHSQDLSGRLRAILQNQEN
Sequence of DNA dC->dU-editing enzyme APOBEC-3A (P31941 whole entry): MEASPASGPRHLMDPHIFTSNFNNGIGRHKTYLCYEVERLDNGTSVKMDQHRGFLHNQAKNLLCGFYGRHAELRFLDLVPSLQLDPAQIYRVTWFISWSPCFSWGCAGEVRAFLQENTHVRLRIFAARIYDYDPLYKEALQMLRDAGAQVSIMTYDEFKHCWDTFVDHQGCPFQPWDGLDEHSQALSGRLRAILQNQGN
Sequence of Cytochrome P450 2C9 (P11712 whole entry): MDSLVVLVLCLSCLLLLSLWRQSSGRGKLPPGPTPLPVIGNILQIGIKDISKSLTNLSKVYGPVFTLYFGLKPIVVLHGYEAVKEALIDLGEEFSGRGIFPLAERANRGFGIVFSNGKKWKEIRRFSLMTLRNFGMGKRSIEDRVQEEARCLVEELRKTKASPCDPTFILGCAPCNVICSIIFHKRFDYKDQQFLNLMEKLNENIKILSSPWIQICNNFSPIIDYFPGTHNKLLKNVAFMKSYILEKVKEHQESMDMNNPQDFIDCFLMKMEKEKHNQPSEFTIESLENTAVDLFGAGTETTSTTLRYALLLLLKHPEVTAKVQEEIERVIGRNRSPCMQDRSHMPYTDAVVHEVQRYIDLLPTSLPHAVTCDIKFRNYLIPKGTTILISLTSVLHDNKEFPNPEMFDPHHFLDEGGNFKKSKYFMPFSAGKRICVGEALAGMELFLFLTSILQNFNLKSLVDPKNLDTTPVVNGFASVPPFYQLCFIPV
Sequence of Luciferin 4-monooxygenase (P08659 whole entry): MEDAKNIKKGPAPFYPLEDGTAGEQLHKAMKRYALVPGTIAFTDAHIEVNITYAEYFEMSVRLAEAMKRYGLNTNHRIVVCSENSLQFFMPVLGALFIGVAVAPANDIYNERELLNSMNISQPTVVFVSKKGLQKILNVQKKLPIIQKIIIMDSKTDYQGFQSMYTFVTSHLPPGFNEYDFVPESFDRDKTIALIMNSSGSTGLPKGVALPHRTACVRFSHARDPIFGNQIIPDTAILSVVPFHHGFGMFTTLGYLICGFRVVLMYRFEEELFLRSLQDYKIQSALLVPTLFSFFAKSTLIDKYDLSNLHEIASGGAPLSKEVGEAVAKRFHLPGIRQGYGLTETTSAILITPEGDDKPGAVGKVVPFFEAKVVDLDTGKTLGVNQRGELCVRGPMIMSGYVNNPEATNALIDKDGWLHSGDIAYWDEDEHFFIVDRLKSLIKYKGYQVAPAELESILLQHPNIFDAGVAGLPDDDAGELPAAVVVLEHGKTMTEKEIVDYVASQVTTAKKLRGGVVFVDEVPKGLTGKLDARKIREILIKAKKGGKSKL
Sequence of Induced myeloid leukemia cell differentiation protein Mcl-1 (Q07820 whole entry, the tested form may be a part): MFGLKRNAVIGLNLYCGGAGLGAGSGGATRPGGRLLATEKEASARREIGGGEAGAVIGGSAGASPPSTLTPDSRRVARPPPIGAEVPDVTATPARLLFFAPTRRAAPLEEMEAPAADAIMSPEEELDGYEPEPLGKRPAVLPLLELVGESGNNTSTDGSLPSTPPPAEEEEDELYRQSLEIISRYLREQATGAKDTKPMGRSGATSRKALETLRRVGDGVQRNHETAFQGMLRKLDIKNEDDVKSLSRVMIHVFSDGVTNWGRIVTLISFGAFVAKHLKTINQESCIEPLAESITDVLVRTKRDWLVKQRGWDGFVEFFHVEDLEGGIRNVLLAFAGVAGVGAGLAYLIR
Sequence of Glyceraldehyde-3-phosphate dehydrogenase (P04406 whole entry): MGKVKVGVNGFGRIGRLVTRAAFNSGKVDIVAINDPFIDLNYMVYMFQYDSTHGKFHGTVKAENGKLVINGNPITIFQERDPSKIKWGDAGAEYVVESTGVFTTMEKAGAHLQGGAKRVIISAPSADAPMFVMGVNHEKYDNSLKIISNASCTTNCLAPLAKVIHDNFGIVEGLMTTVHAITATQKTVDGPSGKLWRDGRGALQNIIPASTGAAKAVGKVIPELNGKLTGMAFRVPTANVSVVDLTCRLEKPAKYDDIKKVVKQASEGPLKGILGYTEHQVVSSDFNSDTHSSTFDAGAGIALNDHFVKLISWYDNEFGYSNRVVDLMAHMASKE

Which IC50 (Prothrombin) does the source give for `O=C(c1ccccc1)n1nnc2ccccc21` here?
Its IC50 is 0.431 µM (active).

For `CC1=C(C(=O)Nc2ccccc2)C(c2ccc(O)cc2)N2C(=O)CSC2=N1` (stereo unspecified), which IC50 (Prothrombin) is on record?
Its IC50 is 25.2 µM (active).

Which results are given for `COc1ccccc1C(=O)NC(=S)N1CCCc2ccccc21`?
EC50 [1]: 16.2 µM (active); EC50 (H4): 31.6 µM (active); EC50 [2]: 29.9 µM (active); EC50 [3]: 9.63 µM (active); AC50 (Cytochrome P450 2C9): inconclusive

With `O=C1C(Cl)=C(N2CCN(Cc3ccc4c(c3)OCO4)CC2)C(=O)N1c1ccc(C(F)(F)F)cc1` as the compound, how does the IC50 [4] read?
The IC50 was > 50 µM (inconclusive).

For `CCN1C(NCCOC)=N[C@@H](c2cccs2)C(C(=O)OC)=C1C`, which IC50 [5] is on record?
Its IC50 is 4.37 µM (active).

What about the IC50 [6] of the same compound?
Its IC50 is 8.01 µM (active).

Which IC50 [5] does the source give for `COC(=O)C1=C(C)N(Cc2ccccc2)C(NCCCCO)=N[C@H]1c1cccc(C(F)(F)F)c1` here?
Its IC50 is 4.94 µM (active).

What about the IC50 [6] of the same compound?
Its IC50 is 7.1 µM (active).

With `COc1ccccc1OC(C)C(=O)N1CCN(Cc2ccc3c(c2)OCO3)CC1` (stereo unspecified) as the compound, how does the IC50 [5] read?
Its IC50 is 7.43 µM (active).

What about the IC50 [6] of the same compound?
The IC50 was 8.33 µM (active).

With `COc1ccc(NC(=S)c2ccc3ccccc3n2)cc1` as the compound, how does the IC50 [7] read?
The IC50 was 66.5 µM (active).

With `CN(Cc1ccccc1)CC(O)COc1ccc(CNCCCOc2cccnc2)cc1` (stereo unspecified) as the compound, how does the EC50 [8] read?
Its EC50 is > 50 µM (active).

Which IC50 [9] does the source give for `CCN(c1ccc(NC(=O)COC(=O)/C=C/c2cccs2)cc1)C(C)C` here?
Its IC50 is 3.34 µM (active).

Which IC50 [5] does the source give for `O=C1CCCC(O)=C1Sc1ccccc1C(=O)O` here?
The IC50 was 13.3 µM (active).

And the IC50 [6]?
The IC50 was 43.8 µM (active).

Which EC50 [8] does the source give for `CC(C)c1ccc2oc(=O)cc(CN3CCN(c4ccc(F)cc4)CC3)c2c1` here?
The EC50 was > 50 µM (active).

Which AC50 (Cytochrome P450 2C9) does the source give for `Cc1ccc(S(=O)(=O)N2CCN(C(=O)C3COc4ccccc4O3)CC2)cc1C` (stereo unspecified) here?
Its AC50 is “inconclusive”.

For `O=C(O)/C(=C\c1cccc([N+](=O)[O-])c1)c1ccc(S(=O)(=O)N2CCCCC2)s1`, which IC50 [10] is on record?
Its IC50 is 9.53 µM (active).

What about the AC50 (Caspase-6) of the same compound?
The AC50 was 13.9 µM (active).

With `Cn1cnc(C(=O)N2CCN(c3ccccc3)CC2)c1C(=O)N1CCN(c2ccccc2)CC1` as the compound, how does the IC50 [10] read?
The IC50 was 7.05 µM (active).

What about the IC50 [5] of the same compound?
Its IC50 is 2.75 µM (active).

What about the IC50 [6] of the same compound?
The IC50 was 6.53 µM (active).

What does the source list for `CC(=O)c1c(C)[nH]c(C(=O)CSc2nnc(-c3ccc(Cl)cc3)n2CC2CCCO2)c1C` (stereo unspecified)?
EC50 [11]: > 112 µM (not active); EC50 [8]: > 50 µM (active); EC50 [12]: > 112 µM (not active)

Which IC50 (Prothrombin) does the source give for `Cc1cc2ncn(C(=O)c3ccc4c(c3)OCO4)c2cc1C` here?
The IC50 was 5.76 µM (active).

For `Cc1ccc(-n2c(C)c([N+](=O)[O-])c3ccc(O)c(CN(C)C)c32)cc1`, which AC50 (HEK293) is on record?
Its AC50 is 8.54 µM (active).
